Results as given in patent publication US20230404972A1, “INHIBITION OF CASPASE PATHWAY AS A TREATMENT FOR LYSOSOMAL STORAGE DISORDERS” (Lysosomal and Rare Disorders Research and Treatment Center, …, priority 2020, published 2023).

What was measured:
Chitotriosidase = Chitotriosidase assay (4-Methylumbelliferone chitotrioside substrate) of PBMC cell culture supernatant; assay type: cell-based, human; settings: PBMCs from LSD patients, 1 μM, 6 hr, with vs without treatment
IL-18 = IL-18 ELISA of PBMC cell culture supernatant; assay type: cell-based, human; settings: PBMCs from LSD patients, 1 uM, 6 hr, relative to untreated PBMCs
Experimental: (§1) PBMCs are extracted from 3-5 ml peripheral blood using Ficoll-Paque (GE health care). 2-4 ml of whole blood is diluted 1:2 using Phosphate buffered saline (PBS) containing 2% fetal bovine serum (FBS) and overlayed onto Ficoll solution in 15 ml leucosep tube. The tubes are centrifuged at 2000 g for 10 minutes with no brakes. The layer containing PBMCs is transferred into a fresh 15 ml tube and washed with PBS+2% FBS. The cells are then resuspended in RPMI+10% FBS. The cells were then counted using heniocytometer and plated into 96 well plates and set at 37° C. incubator with 5% CO2. […]
(§2) Caspase-1, IL-1 beta and IL-18 were quantified as a measure of capase-1 activity. CCL18 and chitotriosidase were measured as to indicate macrophage activation and reflect clinical outcomes. ELISAs were performed as per manufacturer's protocols to quantify the following cytokines: 1) Caspase 1 (Therrnofisher Scientific, Waltham, MA, USA), 2) IL-1 beta, 3) IL-18 (Abcam, Cambridge, MA, USA), 4) CCL-18 cytokines-1 (Themofisher scientific, Waltham, MA, USA). […]
(§3) Caspase-1 mediated inflammasome cleaves pro-IL-1 beta and pro-IL-18 into active forms II-1 beta and IL-18 which are secreted from the cells. […] Relative decrease for each sample was calculated as relative to untreated PBMCs (FIG. 3A and 3B). […]

IL-1 beta = IL-1 beta ELISA of PBMC cell culture supernatant; assay type: cell-based, human; settings: PBMCs from LSD patients, 1 uM, 6 hr, relative to untreated PBMCs
Experimental: as §1, §2, §3

CCL18 = CCL18 ELISA of PBMC cell culture supernatant; assay type: cell-based, human; settings: PBMCs from LSD patients, 1 μM, 6 hr, with vs without treatment
Caspase 1 = target: T1, Caspase 1 (Homo sapiens, UniProt P29466); assay: Caspase-Glo 1 inflammasome assay in PBMCs from LSD patients; assay type: cell-based; settings: 1 μM, 6 hr, vs untreated PBMCs
T1 construct: Caspase 1 activity within the PBMCs; endogenous in cells; host or cells: primary PBMCs from LSD patients
T1 sequence (P29466 120-297 limits assumed): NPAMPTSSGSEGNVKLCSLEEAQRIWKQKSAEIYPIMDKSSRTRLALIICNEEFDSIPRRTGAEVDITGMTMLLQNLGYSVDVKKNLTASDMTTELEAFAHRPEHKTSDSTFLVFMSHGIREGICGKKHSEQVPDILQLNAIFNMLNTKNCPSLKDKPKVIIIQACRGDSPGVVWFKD
T1 sequence (P29466 317-404 limits assumed): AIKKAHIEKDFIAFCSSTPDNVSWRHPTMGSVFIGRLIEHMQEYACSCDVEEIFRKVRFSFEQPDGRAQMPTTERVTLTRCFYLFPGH
Experimental: PBMCs are extracted from 3-5 ml peripheral blood using Ficoll-Paque (GE health care). 2-4 ml of whole blood is diluted 1:2 using Phosphate buffered saline (PBS) containing 2% fetal bovine serum (FBS) and overlayed onto Ficoll solution in 15 ml leucosep tube. The tubes are centrifuged at 2000 g for 10 minutes with no brakes. The layer containing PBMCs is transferred into a fresh 15 ml tube and washed with PBS+2% FBS. The cells are then resuspended in RPMI+10% FBS. The cells were then counted using heniocytometer and plated into 96 well plates and set at 37° C. incubator with 5% CO2.
The pan-caspase inhibitor, Emricasan (Sigma-Aldrich, Inc., St. Louis, MO, USA), was added to the PBMCs in 96-well plates to a final concentration of 1 μM. After 6 hr of Emricasan treatment, the cells were divided into two groups and used for 1) measurement of Caspase 1 activity within the PBMCs using Caspase-Glo 1 inflammasome assay (Promega, Madison, WI, USA), and 2) the supernatant was collected after centrifuging at 3000 rpm for 5 min to perform ELISA assays for cytokines: IL-1 beta and IL-18 as well as macrophage activation markers: Chitotriosidase and CCL18. […]
as §3

Caspase 1 activity within the PBMCs (Caspase 1): reduced
Structure (SMILES): C[C@H](NC(=O)C(=O)Nc1ccccc1C(C)(C)C)C(=O)N[C@@H](CC(=O)O)C(=O)COc1c(F)c(F)cc(F)c1F [Emricasan, (3S)-3-({N-[{[2-(2-Methyl-2-propanyl)phenyl]amino}(oxo)acetyl]alanyl}amino)-4-oxo-5-(2,3,5,6-tetrafluorophenoxy) pentanoic acid]
production of chitotriosidase (macrophage activation biomarker) in cell culture medium (Chitotriosidase): significant decrease
secreted IL-18 in the cell culture supernatant (IL-18): significant decrease
secreted IL-1 beta in the cell culture supernatant (IL-1 beta): significant decrease
production of CCL18 (macrophage activation biomarker) in cell culture medium (CCL18): significant decrease
